According to patent publication US12527870B2, “Peptide hydrogels for delivery of immunosuppressive drugs and uses thereof” (THE JOHNS HOPKINS UNIVERSITY, priority 2018, dated 2026):
Structures can show the parent of a compound that is named as a salt.

How the values were obtained:
Type in all cases: physicochemical
[1] = Ex vivo drug release from peptide hydrogel into buffer
Excerpt: FIGS. 1A-1D: Release profiles of tofacitinib from peptide hydrogels. (FIG. 1A) Sustained release profile of tofacitinib free base vs burst release of tofacitinib citrate salt from MAX8 peptide hydrogel at early time points. (FIG. 1B) Release profiles of tofacitinib free base and citrate at longer time duration. (FIG. 1C) Variation of release profiles of tofacitinib free base based on the initial amount of drug loading. (FIG. 1D) Release profiles of tofacitinib free base from MAX1 and HLT2 peptide hydrogels. Concentration of tofacitinib free base was 16 mM. In each case, release of the drug was monitored from the hydrogel into an infinite sink (25 mM HEPES, 150 mM NaCl, pH 7.4) at 37° C. Lines are included for visual guidance.
A MAX8 peptide stock solution was prepared in glass vials by dissolving 1 mg of peptide in 50 μL of chilled sterile water. Tofacitinib free base and tofacitinib citrate (purchased from LC Laboratories, Woburn, MA) stock solutions were prepared in spectrophotometric grade DMSO with final concentrations of 100 μg/μL and 160 μg/μL, respectively. Concentration of the stock solution was determined in such a way that would maintain equal ratio of DMSO to HEPES buffered saline (HBS) (v/v) while loading equimolar concentration of tofacitinib free base and citrate into the hydrogel. Required volume of drug stock solution was added into a chilled solution of HBS (2X HBS, 50 mM HEPES, 300 mM NaCl, pH 7.4) to make the final volume as 50 μL. At this point, care was taken to avoid mixing before the peptide stock solution had been transferred to the resulting suspension. Peptide solution was added and samples were then mixed to initiate hydrogelation, resulting in a 1.0 wt % gel of a final total volume of 100 μL containing required amount of loaded drug. Tofacitinib free base was loaded to the final concentrations of 1.6, 3.2 and 16 mM. For tofacitinib citrate salt, only hydrogels with a final concentration of 16 mM loaded drug were considered for drug release studies. Samples were placed in an incubator at 37° C. for 24 hours. After 24 hours, 1 mL of 1X HBS (25 mM HEPES, 150 mM NaCl, pH 7.4) was added to the top of gel. At scheduled time points, the entire volume of buffer above the gel was removed and replaced with fresh buffer. Drug concentration was determined for each removed aliquot as a function of time by measuring absorbance at 290 nm in a UV-VIS spectrophotometer (Agilent 8453) with a standard curve constructed under similar conditions.

[2] = Crystallization of drug within peptide hydrogel (phase-contrast, confocal, polarized light microscopy)
Method: During hydrogel-mediated encapsulation, when used at a loading concentration of 16 mM, tofacitinib free base initially produced an opaque suspension that turned into a transparent hydrogel as the drug dissolved in the self-assembled peptide matrix at 37° C. during the first 2-3 hours. […] Approximately 10 μL of the hydrogel was then placed on a glass slide and covered with a cover slip. Phase-contrast microscopy (EVOS FL Cell Imaging System) and confocal microscopy (LSM 710) were used to characterize the drug aggregates suspended in the hydrogel matrix. Crystallinity of the aggregates was verified from polarized light microscopy at low and high magnification.
Shown in FIGS. 2A-2C are phase contrast images of tofacitinib free base encapsulated within MAX8 peptide hydrogel at the drug concentrations of 16 mM (FIG. 2A), 1.6 mM (FIG. 2B) and blank MAX8 peptide hydrogel (FIG. 2C). Shown in FIGS. 2D-2E are confocal microscopy-generated differential interference contrast images of tofacitinib free base microcrystals dispersed in MAX8 peptide gel network at a drug concentration of 16 mM.

[3] = Release profile from MAX8 hydrogel with varying DMSO volume ratio; details: 16 mM, DMSO 2-30% by volume
Method: FIGS. 6A-6B: Release profile of tofacitinib from MAX8 hydrogel. (FIG. 6A) Cumulative release profiles of tofacitinib (free base) from MAX8 hydrogel containing different volume ratios of DMSO versus hydrogel. In each case, the tofacitinib stock solution was prepared in DMSO and an increasing volume of the DMSO stock was added while constituting the hydrogel. The total concentration of loaded tofacitinib was constant at 16 mM. Release profile of the drug was monitored from the hydrogel into buffer (25 mM HEPES, 150 mM NaCl, pH 7.4) at 37° C. (FIG. 6B) Release rate of tofacitinib from MAX8 hydrogel containing varying volumes of DMSO during the first 4 hours.
In each case, the tofacitinib stock solution was prepared in DMSO and an increasing volume of the DMSO stock was added while constituting the hydrogel. The total concentration of loaded tofacitinib was constant at 16 mM. The release profile of the drug was monitored from the hydrogel into buffer (25 mM HEPES, 150 mM NaCl, pH 7.4) at 37° C.

[4] = MAX8 hydrogel, 16 mM loading, HBS pH 7.4, 37° C.
[5] = MAX8 hydrogel, 16 mM loading, 37° C.

Structure (SMILES)	release profile from MAX8 hydrogel, free base vs citrate [1, 4]	crystallization within MAX8 hydrogel [2, 5]	effect of decreasing the DMSO concentration on solubility [3]	period to show similar cumulative release (over 75%) ([1]; MAX8 hydrogel, 16 mM loading, crystallized state, HBS pH 7.4, 37° C.) [days]	release profile at lower loading compared to 16 mM ([1]; MAX8 hydrogel, 0.48, 1.6 and 3.2 mM loading)	drug released within the first 10 hours ([1]; MAX8 hydrogel, loading 0.48 to 3.2 mM, soluble (not crystallized) drug, into 25 mM HEPES, 150 mM NaCl, pH 7.4, 37° C.)	crystallization within HLT2 hydrogel ([2]; HLT2 hydrogel, 16 mM loading)	crystallization within MAX1 hydrogel ([2]; MAX1 hydrogel, 16 mM loading)	loading concentration needed for crystallization ([2]; MAX8 hydrogel)	time of in situ crystallization after dissolution ([2]; MAX8 hydrogel, 16 mM, 37° C., after the first 2-3 hours) [h]	crystallization within MAX8 hydrogel below 16 mM ([2]; MAX8 hydrogel, loading concentration below 16 mM)
C[C@@H]1CCN(C(=O)CC#N)C[C@@H]1N(C)c1ncnc2[nH]ccc12 [tofacitinib citrate]	released faster	did not crystallize									
C[C@@H]1CCN(C(=O)CC#N)C[C@@H]1N(C)c1ncnc2[nH]ccc12 [tofacitinib free base, 3-((3R,4R)-4-methyl-3-(methyl (7H-pyrrolo[2,3-d]pyrimidin-4-yl)amino)piperidin-1-yl)-3-oxopropanenitrile]	slower, more sustained release	gradually crystallized in situ	reduces the solubility	6	more rapid release	over 75%	crystallized	crystallized	above 3.2 mM	~20	no visible indication of crystallization
